The subject of data set [1] is MDBK cells. The experiment in a line: Cytotoxicity in plaque reduction assay, microscopic examination of the cell monolayers. Format: cell-based, bovine. As to the method:
(§1) MDBK cells were seeded into 6-well cell culture plates (Nunclon™, Nunc, Denmark) and allowed to grow to confluency. The cells are washed twice in warm phosphate buffered saline (PBS) and then infected with BVDV NADL (150 pfu/well) in 0.25 ml PBS containing 1% horse serum and 1 mM MgCl2. The cell culture plates were then incubated at 37° C. for one hour with 5% CO2 and the plates rocked every 15-20 minutes. The virus inoculum was then removed and replaced with 3.0 ml of 0.5% low-gelling temperature agarose overlay diluted in DMEM supplemented with 5% horse serum, 2 mM L-glutamine, 50 U/ml penicillin and 50 Lg/ml streptomycin and containing different concentrations of test compound or no compound. At least duplicate or triplicate wells were used for each concentration of test compound. The agarose was allowed to solidify at room temperature for 15 minutes and then incubated at 37° C. with 5% CO2. After 3 days incubation the cells were fixed by adding 1.5 ml of a […] solution over the agar overlay and leaving overnight. The agar was gently removed from the wells and the cells stained with 0.3% methylene blue in PBS for 10 minutes at room temperature. The excess stain was removed and the cells washed with PBS prior to drying of the plates and counting of the viral plaques microscopically. Dose response lines were plotted from the mean number of plaques present versus the log of the concentration of the compound. The 50% Inhibitory concentration (IC50) was computed after linear regression analysis.
(§2) There was no sign of cytotoxicity at concentrations up to 1000 μM as judged by microscopic examination of the cell monolayers.
On the technique in general: In a plaque reduction assay, fewer plaques than in the control indicate reduced infectivity or spread.

For data set [2], the system named is BVDV NADL. The experiment in a line: XTT cytopathicity assay, infected cells. Format: cell-based, bovine viral diarrhoea virus. The conditions noted are these: for protection of MDBK cells against virus-induced cell death (cytopathic effect of BVDV): FIG. 2. As to the method:
The cells were washed twice in warm phosphate buffered saline (PBS) and then infected with BVDV NADL (100 pfu/well) in 100 μl of DMEM supplemented with 5% horse serum, 2 mM L-glutamine, 50 U/ml penicillin and 50 μg/ml streptomycin. Some wells were mock infected to act as controls. A further 100 μl of DMEM supplemented as above, but containing different concentrations of test compound or no compound was then added to each well. Triplicate wells were used for each compound concentration. In parallel, uninfected cells were treated with compound to assess cytotoxicity. The plates were then incubated at 37° C. with 5% CO2. […] The absorbance was then determined at 450 nm.
(Tetrazolium assays rely on reduction of a dye to a coloured formazan, in cell work by metabolically active cells.)

Data set [3] has as its system MDBK cells. The experiment in a line: XTT cytopathicity assay, uninfected cells (cytotoxicity). It is filed as cell-based, bovine. To be noted: for CC50: uninfected MDBK cells, 6 days. As to the method:
(§3) MDBK cells were seeded into 96-well cell culture plates (Costar® 3596, Corning Incorp., USA) and allowed to grow to confluency. The cells were washed twice in warm phosphate buffered saline (PBS) and then infected with BVDV NADL (100 pfu/well) in 100 μl of DMEM supplemented with 5% horse serum, 2 mM L-glutamine, 50 U/ml penicillin and 50 μg/ml streptomycin. Some wells were mock infected to act as controls. A further 100 μl of DMEM supplemented as above, but containing different concentrations of test compound or no compound was then added to each well. Triplicate wells were used for each compound concentration. In parallel, uninfected cells were treated with compound to assess cytotoxicity. The plates were then incubated at 37° C. with 5% CO2. After 6 days 25 μl of a 1 mg/ml 2,3-bis[2-methoxy-4-nitro-5-sulphophenyl]-2H-tetrazolium-5-carboxanilide (XTT)/25 μM phenazine methosulphate (PMS) solution (XTT and PMS purchased from Sigma, Poole, Dorset, UK) was then added to each well and the plates incubated for 2 hours at 37° C. with 5% CO2. The absorbance was then determined at 450 nm. Data was plotted as O. D versus the log of the concentration of the compound and the 50% inhibitory concentration (IC50) computed.

The subject of data set [4] is BVDV. The data set can be described thus: XTT cytopathicity assay, Bucast in combination with interferon alpha. Format: cell-based, bovine viral diarrhoea virus. As to the method:
as §3
The combination indexes (CI) were calculated using the formula of Suhnel (Antiviral Research, 13, 23-40). A CI value of less than 1 indicates a synergistic interaction and values of less than 0.8 are considered to indicate a statistically significant result.

The test system of data set [5] is BVDV NADL. The experiment in a line: Plaque reduction assay in MDBK cells. Format: cell-based, bovine viral diarrhoea virus. The conditions noted are these: for inhibition of formation of BVDV plaques / IC50: MDBK cells; for inhibition of formation of BVDV plaques: FIG. 1; for concentrations at which only partial inhibition was shown: parallel plaque reduction experiments. As to the method:
MDBK cells (NBL-1) (ATCC CCL22) derived from bovine kidney and cytopathic (cp) BVDV (strain NADL) (ATCC VR-534) were available from the American Type Culture Collection (ATCC).
as §1

The nature of data set [6]: Cytotoxicity in plaque reduction assay, microscopic examination of the cell monolayers. It is filed as cell-based, bovine. The conditions noted are these: bovine. As to the method:
as §1, §2

The nature of data set [7]: XTT cytopathicity assay, uninfected cells (cytotoxicity). To be noted: bovine. It is filed as cell-based, bovine. As to the method: as §3
[8] abbreviates: MDBK cell monolayers, plaque reduction assay.
The mark [9] stands for this setting: individual experiments, MOI = 0.01, read-out: *IC50.
The mark [10] stands for this setting: individual experiments, 150 pfu/well, 3 days, read-out: IC50.
The mark [11] stands for this setting: mean of experiments, read-out: Mean IC50 (μM) ± SD.

“And” between values parts separate entries of the source, which are not always exact repeats. Identical values can stand only once. Like-named read-outs stand apart in the source and are kept apart here. Some results are limits rather than exact numbers.

In the case of `CCCC(=O)O[C@H]1CN2CC[C@H](O)[C@@H]2[C@@H](O)[C@@H]1O` [Bucast, 60-butanoylcastanospermine], the CC50 (as a rule, the concentration that lowers cell viability or growth by half) in data set [1] (setting [8]) is greater than 1000 µM; in data set [3], greater than 300 µM. Also, the “protection of MDBK cells against virus-induced cell death (cytopathic effect of BVDV)” value (shortened to “protection of MDBK cells”) in data set [2] was “protected MDBK cells against virus-induced cell death”. For the same molecule, the IC50 (usually the concentration at which inhibition is half-maximal) is 5 µM in data set [2] (MOI 0.0001, read-out: IC50); 40 µM in data set [2] (MOI 0.001, read-out: IC50); 60 µM and 30 µM in data set [2] (MOI 0.01, read-out: IC50); 200 µM and 170 µM in data set [2] (MOI 0.1, read-out: IC50); 60 µM (2×) and 30 µM and 70 µM and 40 µM in data set [2] (setting [9]); 36 µM and 52 µM in data set [2] (mean, MOI = 0.01, read-out: mean IC50). Moreover, the IC50 was 52 ± 16.4 µM in data set [4] (fixed interferon α 0 IRU/well); 13 µM in data set [4] (fixed interferon α 0.125 IRU/well); 4 µM in data set [4] (fixed interferon α 0.25 IRU/well); 3 µM in data set [4] (fixed interferon α 0.5 IRU/well); 10 µM (2×) and 20 µM and 25 µM in data set [5] (setting [10]); 16.2 µM in data set [5] (setting [11]). The “cytotoxicity to uninfected treated cells” value in data set [3] (FIG. 2) is reported as “no cytotoxicity”. For the same molecule, in data set [5], the “inhibition of formation of BVDV plaques” value was “inhibited the formation of BVDV plaques in a dose dependent manner”. Further, the “times more potent than castanospermine” value in data set [5] (ratio of mean IC50) is reported as “approximately 13 times”.
As for `OC1CN2CC[C@H](O)[C@@H]2C(O)[C@@H]1O` (stereo partly drawn) [Castanospermine, [1S-(1α, 6β,7α,8β,8αβ)]-octahydro-1,6,7,8-indoli-zinetetrol], the CC50 at 3 days in data set [6] is greater than 1 mM. For the same molecule, the IC50 was 300 µM in data set [2] (Bovine viral diarrhea virus isolates and strains, in Bos taurus, individual experiments, MOI = 0.01, read-out: *IC50); 400 µM in data set [2] (Bovine viral diarrhea virus isolates and strains, in Bos taurus, read-out: mean IC50 (μM), mean, MOI = 0.01); 500 µM in data set [2] (setting [9]); 180 µM in data set [5] (Bovine viral diarrhea virus isolates and strains, MDBK, in Bos taurus, 72 h, individual experiments, 150 pfu/well, 3 days, read-out: IC50); 217 µM in data set [5] (Bovine viral diarrhea virus isolates and strains, MDBK, in Bos taurus, mean of experiments, read-out: Mean IC50 (μM) ± SD); 190 µM and 280 µM in data set [5] (setting [10]). Also, the “protection of MDBK cells” value in data set [2] is reported as “protected MDBK cells against virus-induced cell death”. Besides, the “cytotoxicity to uninfected treated cells” value in data set [3] was “no cytotoxicity”. The same molecule registered a 50% cytotoxic concentration (CC50) at 6 days in data set [7] greater than 1 mM. Moreover, the “inhibition of formation of BVDV plaques” value in data set [5] is “inhibited the formation of BVDV plaques in a dose dependent manner”.
For the molecule `CCCCN1C[C@H](O)[C@@H](O)[C@H](O)[C@H]1CO` [N-Butyl-DNJ, N-butyl-deoxynojirimycin], the CC50 in data set [1] (setting [8]) is greater than 300 µM; in data set [3], greater than 1000 µM. Moreover, in data set [2], the “protection of MDBK cells” value is “neither N-butyl-DNJ or N-nonyl-DNJ demonstrated any protection”. The half-maximal inhibitory concentration (IC50) in data set [2] (MOI 0.0001, read-out: IC50) was 55 µM; in data set [2] (MOI 0.001, read-out: IC50), greater than 300 µM; in data set [2] (MOI 0.01, read-out: IC50) it was greater than 300 µM; in data set [2] (MOI 0.1, read-out: IC50) it was greater than 300 µM; in data set [2] (setting [9]) it was greater than 1000 µM; in data set [5] (setting [10]), > 300 µM and 250 µM. Besides, the “fold less potent than Bucast” value in data set [2] (very low MOI) was 10 fold. For the same molecule, the “cytotoxicity to uninfected treated cells” value in data set [3] (FIG. 2) is recorded as “no cytotoxicity”. Also, in data set [5], the “concentrations at which only partial inhibition was shown” value is greater than 100 µM.
For the molecule `CCCCCCCCCN1C[C@H](O)[C@@H](O)[C@H](O)[C@H]1CO` [N-Nonyl-DNJ, N-nonyl-deoxynojirimycin], the “CC50 (μM)” value in data set [1] (setting [8]) is given as “Toxic @ 300”. For the same molecule, in data set [1] (at a concentration of 300 μM), the cytotoxicity to cells result was “clearly cytotoxic”. The “protection of MDBK cells” value in data set [2] is given as “neither N-butyl-DNJ or N-nonyl-DNJ demonstrated any protection”. The IC50 in data set [2] (setting [9]) was 60 µM and > 100 µM; in data set [5] (setting [10]), 90 µM and 120 µM; in data set [5] (setting [11]), 105 µM. The “cytotoxicity to uninfected treated cells” value in data set [3] (FIG. 2) was “clearly cytotoxic”. The molecule further yielded a CC50 in data set [3] of 120 µM. Further, the “concentrations at which only partial inhibition was shown” value in data set [5] is greater than 300 µM.
On to Interferon α, for which the IC50 in data set [2] (interferon alone) is on record as 1.3 interferon resistance units (IRU) per well. In addition, the “IC50 Interferon α (IRU/well)” value is recorded as 1.3 IRU/well in data set [4] (fixed Bucast 0 μM), 0.22 IRU/well in data set [4] (fixed Bucast 5 μM) and 0.12 IRU/well in data set [4] (fixed Bucast 10 μM).

The values are drawn from patent US7601735B2, “Antiviral compounds” (priority 2001, dated 2009).
